{"source": "patent US10889812B2", "about": "“Short non-coding protein regulatory RNAs (sprRNAs) and methods of use” (University of Maryland, Baltimore, priority 2014, dated 2021)", "key": {"[1]": {"test_system": "H157 and SKMES-1 cells", "experiment": "Flow cytometry, sub-G1 phase after CDDP", "assay_type": "cell-based, human", "details": "Ant-138 then CDDP (IC25 dose) six hours later, vs Scr", "method": "Cell cycle distribution was analyzed by Flow Cytometry (Becton-Dickinson). Cells were synchronized in growth factor-free Keratinocyte-SFM with 2 mM Thymidine (Catalog No. T1895, Sigma-Aldrich) for 24 hrs. Transfection is performed using Lipofectamine™ RNAiMAX (Invitrogen) according to its manual, and the final concentration of annealed oligo RNAs is 400 nM. Four hour after transfection, culture medium was replaced by complete Keratinocyte-SFM supplemented with L-Glutamine, prequalified human recombinant EGF 1-53 and BPE. Cells were harvested at different time points, washed in phosphate-buffer saline (PBS), fixed with ice-cold 70% ethanol, and strained in PI/RNase solution (BD Pharmigen). The samples were analyzed on a FACScan flow cytometer in combination with BD lysis software (Becton-Dickinson).\n(§1) To determine if the increased piR-L-138 plays a functional role in CDDP treated SCC cells, we used DNA antisense oligos of piR-L-138 (Ant-138) to block piR-L-138 in H157 and SKMES-1 cells. Six hours after Ant-138 treatment, we treated the cells with CDDP (IC25 dose)."}, "[2]": {"test_system": "H157 tumor xenograft", "experiment": "H157 tumor xenograft model, intra-tumor injection of Ant-138 with CDDP", "assay_type": "in vivo, mice", "source_text": "To further validate the interaction between piR-L-138 and MDM2 at the individual cell level, we performed fluorescence in situ hybridization (FISH) assay using a digoxin (DIG)-labelled RNA probe complimentary to piR-L-138 and an anti-MDM2 antibody. We first tested the probes in HBE4 cells which express high levels of piR-L-138 to ensure the sensitivity and specificity of the piR-L-138 probe and MDM2 antibody (FIG. 16c). […] This is consistent with the observed up-regulation of piR-L-138 in SCC cells upon CDDP treatment and the interaction between piR-L-138 and MDM2. Next, we used H157 tumor xenograft model to determine if targeting piR-L-138 can enhance CDDP-mediated tumor cell apoptosis in SCC in vivo. In this proof of principle experiment, we used intra-tumor injection of Ant-138 (SEQ ID NO:556) which was formulated with MaxSuppr in vivo RNALancerll as described previously (Wiggins J F, et al. Development of a Lung Cancer Therapeutic Based on the Tumor Suppressor MicroRNA-34. Cancer Res. 70, 5923-30(2010)) due to the requirement of very large quantity of formulated reagents needed for systemic delivery. […] Since we were using local injection with sub-optimal dose, such modest anti-tumor activity was expected. We were focusing on determining if Ant-138 increased apoptosis at the sites of injection by analyzing tumor tissue sections for cleaved caspase 3 as an indicator of apoptosis and Ant-138."}, "[3]": {"test_system": "H157 and SKMES-1 cells", "experiment": "MTT assay, cell killing by CDDP after Ant-138", "assay_type": "cell-based, human", "details": "Ant-138 then CDDP (IC25 dose) six hours later, vs Scr pre-treated", "method": "Cell viability and cell growth curve assay were determined by MTT assay and trypan blue exclusion assay, respectively as described previously (Kirino, Y. & Mourelatos, Z. Mouse Piwi-interacting RNAs are 2′-O-methylated at their 3′ termini Nat Struct Mol Biol. 14, 347-348 (2007)). BrieflySpecifically, MTT (5 mg/ml) was added into cells and incubated at culture condition for 3 hours, removed the medium carefully and dissolved formazan in DMSO, assay was used to assess the surviving cells and OD values were measured using Microplate Reader Manager (Bio Rad) at wavelengths of 570/690 nm. For trypan blue exclusion assay, cells were washed in PBS for three times, and dyed in 0.4% tyrpan blue solution. Unstained viable cells were counted in hemocytometer chamber under microscope. Each experiment was performed three times independently.\nas §1"}, "[4]": {"test_system": "cleaved PARP", "experiment": "Western blot of cleaved PARP in CDDP treated SCC cells", "assay_type": "cell-based, human", "details": "pre-treated SCC cells plus CDDP, vs Scr", "source_text": "(§2) Primary antibodies used were: anti-Moesin (1:1,000, Clone Q480, Catalog No. 3150, Cell Signaling), anti-p-ERM (Clone 41A3, Catalog No. 3149, Cell Signaling), anti-Moesin (Clone 38/Moesin, Catalog No. 610401, BD Transduction Laboratories), anti-p-Moesin (Thr558, Catalog No. 12895, Sanra Cruz), anti-β-actin (1:5,000, Catalog No. A228, Sigma-Aldrich), anti-EBP50 (1:100, Clone 6/EBP50, Catalog No. 61160, BD Transduction Laboratories), anti-F-actin (1:100, Clone NH3, Catalog No. MA1-80729, Thermor Fisher), anti-p-Wee 1 (Se53, 1:1000, Catalog No. sc-130223, Sanra Cruz), anti-Wee 1 (C-20, 1:1000, Catalog No. sc-325, Sanra Cruz), anti-p-Cdc2 (Tyr15, 1:1000, Catalog No. 9111, Cell Signaling), anti-p-Cdk (Thr14/Tyr15-R, 1:1000, Catalog No. sc-28435-R, Sanra Cruz), anti-Cdc2 p34 (H-297, 1:1000, Catalog No. sc-747, Sanra Cruz), anti-p-Cdc25C (Ser198, 1:1000, Catalog No. 9529, Cell Signaling), anti-CDK2 (78B2, 1:1000, Catalog No. 2546, Cell Signaling), anti-p-Histone H2AX (Ser139, 20E3, :1000, Catalog No. 9718, Cell Signaling), and anti-GFP (N-terminal, 1:4000, Catalog No. G1544, Sigma). Secondary antibodies used were: Goat anti-Mouse (1:2,500, Catalog No. 31160, Pierce), and Goat anti-Rabbit (1:2,500, Catalog No. 31460, Pierce). Cells were lysed in RIPA buffer (Sigma) on ice after washed in PBS twice, centrifuge at 160,000×g for 10 min at 4° C. […]"}, "[5]": {"test_system": "MDM2", "experiment": "Western blot of MDM2 cleavage and phosphorylation in SCC cells", "assay_type": "cell-based, human", "details": "SCC cells pre-treated, upon CDDP treatment", "source_text": "as §2, with “C. Protein in supernatant was qualified using BCA™ protein assay kit (Thermo Scitific) and denatured in SDS loading buffer in boiling water, run 10% SDS-PAGE gel and transferred to nitrocellulose membrane (Thermo Scitific).” for “C.”\nNext, we wanted to explore potential mechanism of piR-L-138-mediated apoptosis inhibition in CDDP treated lung SCC cells. We first analyzed cleaved PARP, a protein marker indicative of apoptosis, and found it was increased in the SCC cells pre-treated with Ant-138 compared with Scr pre-treated cells (FIG. 15d). As both of the SCC cell lines harbor p53 mutations, we analyzed mouse double minute 2 homolog (MDM2) which has been implicated in apoptosis including p53-independent pathway (Bohlman S, Manfredi J J. p53-independent effects of Mdm2. Subcell Biochem. 85,235-46 (2014); Bouska A, Eischen C M. Mdm2 affects genome stability independent of p53. Cancer Res. 69, 1697-701 (2009); Zhang, Z., Li, M., Wang, H., Agrawal, S., and Zhang, R. Antisense therapy targeting MDM2 oncogene in prostate cancer: Effects on proliferation, apoptosis, multiple gene expression, and chemotherapy. Proc. Natl. Acad. Sci. 100, 11636-11641 (2003); Zhang Z, Wang H, Li M, Agrawal S, Chen X, Zhang R. MDM2 Is a Negative Regulator of p21WAF1/CIP1, Independent of p53. […]"}, "[6]": {"test_system": "SCC cells", "experiment": "Annexin V staining assay, CDDP-induced apoptosis", "assay_type": "cell-based, human", "details": "pre-treated SCC cells, vs Scr pre-treated", "source_text": "as §1"}, "[7]": {"test_system": "LAMC2", "experiment": "LAMC2 expression by real time RT-PCR in HBE4 cells", "assay_type": "cell-based, human", "source_text": "FIG. 11. Expression of piR-L-163 in NSCLC and HBE cell lines measured by real time RT-PCR. (a) piR-L-163 expression levels in individual cell lines. (b) piR-L-163 express ion levels in HBE, ADC and SCC as groups. All the values are averages of four independent replicates, error bars represent mean s.d., and * indicates p<0.01 by Student's t-test. (c) LAMC2 express ion levels in HBE4 cells measured by real time RT-PCR in the conditions as labeled. Values are averages of three independent replicates, error bars represent mean s.d., and ** indicates p<0.05 by Student's t-test.\nWe then wanted to determine whether piR-L-163 (SEQ ID NO:282) plays a functional role in human bronchial epithelial cells. We treated HBE4 cells as well as primary normal human bronchial epithelial (NHBE) cells with piR-L-163 complementary DNA oligonucleotides (Ant-163) (SEQ ID NO:496) or RNA oligonucleotides (Ant-163R) (SEQ ID NO:497) in the experiment. […] Cell cycle distributions were measured every 2 hrs."}, "[8]": {"test_system": "phosphor-proteins", "experiment": "Western blots of phosphorylated proteins (p-Tyrosine, p-Theronin/Serine)", "assay_type": "cell-based, human", "details": "lung SCC cells treated with the DNA oligo", "source_text": "(§3) To test the potential impact of the candidate sprRNAs identified by phosphor-protein binding in the phosphorylation status of the proteins, we selected a panel of 5 sprRNAs with sizes ranging from 25-50 nt but sharing a common 25 nt sequence and used DNA oligo complementary to the common sequence (5′-[…]-3′) (SEQ ID NO:489) to block these sprRNAs."}, "[9]": {"test_system": "lung SCC cell lines", "experiment": "MTT cell viability after DNA oligo blocking 5 sprRNAs", "assay_type": "cell-based, human", "details": "twenty-four hours after treatment, 4 lung SCC cell lines", "source_text": "as §3"}}}
{"substance": "Ant-138: DNA sequence that is antisense to piR-L-138, SEQ ID NO:556 (antisense AGGTCTCAGAGTAATTCTAGAGCTAAAGT; listed as DNA, chemistry not given here)", "values": [{"measurement": "proportion of the sub-G1 phase", "setting": "[1]", "value": "substantially increased proportion of the sub-G1 phase"}, {"measurement": "caspase 3 positive tumor cells by Ant-138 level (immunofluorescence)", "setting": "[2]; tumors treated with CDDP and Ant-138", "value": "significantly concentrated caspase 3 positive tumor cells in areas with high levels of Ant-138"}, {"measurement": "tumor size", "setting": "[2]; with CDDP, intra-tumor injection, vs untreated and CDDP plus Scr", "value": "smaller but the difference was only border line statistically"}, {"measurement": "expression of cleaved caspase 3 in tumors", "setting": "[2]; with CDDP, vs CDDP and Scr control", "value": "higher expression of cleaved caspase 3"}, {"measurement": "cell killing (MTT)", "setting": "[3]", "value": "significantly increased cell killing"}, {"measurement": "cleaved PARP", "setting": "[4]", "value": "increased"}, {"measurement": "MDM2 cleavage", "setting": "[5]", "value": "substantially reduced MDM2 cleavage"}, {"measurement": "serine-166 phosphorylation in the cleaved MDM2", "setting": "[5]", "value": "increase of serine-166 phosphorylation in the cleaved MDM2"}, {"measurement": "sensitivity to CDDP-induced apoptosis (annexin V)", "setting": "[6]", "value": "more sensitive to CDDP-induced apoptosis"}]}
{"substance": "Ant-163R: piR-L-163 complementary RNA oligonucleotides, SEQ ID NO:497 (antisense GGUCAGAGAAUCAAAGUAACAUCAUGAUAU; listed as RNA, chemistry not given here)", "values": [{"measurement": "expression levels of LAMC2", "setting": "[7]", "value": "reduced expression levels of LAMC2"}]}
{"substance": "DNA oligo complementary to the common sequence: DNA sequence antisense to SEQ ID NO:489 (AntiC, SEQ ID NO:558), blocks 5 sprRNAs sharing a common 25 nt sequence (antisense CGAACCCGGGCCGCGGCGGTGAGA; DNA, backbone and methylation of C not given here)", "values": [{"measurement": "levels of phosphorylated proteins", "setting": "[8]", "value": "changes of levels in certain phosphor-proteins"}, {"measurement": "cell viability (MTT)", "setting": "[9]", "value": "significant growth inhibition"}]}
